Key:
c-RAF = c-RAF (Homo sapiens (Human), UniProt P04049); assay: Kinase inhibition assay (KinaseProfiler, 33P-ATP); format: biochemical; details: c-RAF(h); compound at 10 μM; read-out: The percentage of the remaining active protein
Yes = Yes (Homo sapiens (Human), UniProt P07947); assay: Kinase inhibition assay (KinaseProfiler, 33P-ATP); format: biochemical
EphB4 = EphB4 (Homo sapiens (Human), UniProt P54760); assay: Kinase inhibition assay (KinaseProfiler, 33P-ATP); format: biochemical; details: EphB4; ATP at Km
DDR1 = DDR1 (Homo sapiens (Human), UniProt Q08345); assay: Kinase inhibition assay (KinaseProfiler, 33P-ATP); format: biochemical; details: DDR1; ATP at Km
DDR2 = DDR2 (Homo sapiens (Human), UniProt Q16832); assay: Kinase inhibition assay (KinaseProfiler, 33P-ATP); format: biochemical; details: DDR2; ATP at Km
TrkA = TrkA (Homo sapiens (Human), UniProt P04629); assay: Kinase inhibition assay (KinaseProfiler, 33P-ATP); format: biochemical; details: TrkA(h); compound at 10 μM; read-out: The percentage of the remaining active protein
Btk = Btk (Homo sapiens (Human), UniProt Q06187); assay: Kinase inhibition assay (KinaseProfiler, 33P-ATP); format: biochemical
IKKα = IKKα (Homo sapiens (Human), UniProt O15111); assay: Kinase inhibition assay (KinaseProfiler, 33P-ATP); format: biochemical
Axl = Axl (Homo sapiens (Human), UniProt P30530); assay: Kinase inhibition assay (KinaseProfiler, 33P-ATP); format: biochemical
PDGFRα = PDGFRα (Homo sapiens (Human), UniProt P16234); assay: Kinase inhibition assay (KinaseProfiler, 33P-ATP); format: biochemical
EGFR = EGFR (Homo sapiens (Human), UniProt P00533); assay: Kinase inhibition assay (KinaseProfiler, 33P-ATP); format: biochemical
Lyn = Lyn (Homo sapiens (Human), UniProt P07948); assay: Kinase inhibition assay (KinaseProfiler, 33P-ATP); format: biochemical; details: Lyn(h); compound at 10 μM; read-out: The percentage of the remaining active protein
Tie2 = Tie2 (Homo sapiens (Human), UniProt Q02763); assay: Kinase inhibition assay (KinaseProfiler, 33P-ATP); format: biochemical; details: Tie2 (h); compound at 10 μM; read-out: The percentage of the remaining active protein
CHK1(h) = CHK1(h) (Homo sapiens (Human), UniProt O14757); assay: Kinase inhibition assay (KinaseProfiler, 33P-ATP); format: biochemical; details: compound at 10 μM, read-out: The percentage of the remaining active protein
FAK(h) = FAK(h) (Homo sapiens (Human), UniProt Q05397); assay: Kinase inhibition assay (KinaseProfiler, 33P-ATP); format: biochemical; details: compound at 10 μM, read-out: The percentage of the remaining active protein
GSK3β(h) = GSK3β(h) (Homo sapiens (Human), UniProt P49841); assay: Kinase inhibition assay (KinaseProfiler, 33P-ATP); format: biochemical; details: compound at 10 μM, read-out: The percentage of the remaining active protein
Met(h) = Met(h) (Homo sapiens (Human), UniProt P08581); assay: Kinase inhibition assay (KinaseProfiler, 33P-ATP); format: biochemical; details: compound at 10 μM, read-out: The percentage of the remaining active protein
PAK1(h) = PAK1(h) (Homo sapiens (Human), UniProt Q13153); assay: Kinase inhibition assay (KinaseProfiler, 33P-ATP); format: biochemical; details: compound at 10 μM, read-out: The percentage of the remaining active protein
Pim-1(h) = Pim-1(h) (Homo sapiens (Human), UniProt P11309); assay: Kinase inhibition assay (KinaseProfiler, 33P-ATP); format: biochemical; details: compound at 10 μM, read-out: The percentage of the remaining active protein
PKBα(h) = PKBα(h) (Homo sapiens (Human), UniProt P31749); assay: Kinase inhibition assay (KinaseProfiler, 33P-ATP); format: biochemical; details: compound at 10 μM, read-out: The percentage of the remaining active protein
PKBβ(h) = PKBβ(h) (Homo sapiens (Human), UniProt P31751); assay: Kinase inhibition assay (KinaseProfiler, 33P-ATP); format: biochemical; details: compound at 10 μM, read-out: The percentage of the remaining active protein
TBK1(h) = TBK1(h) (Homo sapiens (Human), UniProt Q9UHD2); assay: Kinase inhibition assay (KinaseProfiler, 33P-ATP); format: biochemical; details: compound at 10 μM, read-out: The percentage of the remaining active protein
Tec(h) activated = Tec(h) activated (Homo sapiens (Human), UniProt P42680); assay: Kinase inhibition assay (KinaseProfiler, 33P-ATP); format: biochemical; details: compound at 10 μM, read-out: The percentage of the remaining active protein
PI3 Kinase a(h) = PI3 Kinase a(h) (Homo sapiens (Human), UniProt P42336); assay: Kinase inhibition assay (KinaseProfiler, 33P-ATP); format: biochemical; details: PI3 Kinase a(h); compound at 10 μM; read-out: The percentage of the remaining active protein
A549 = assay: Cell proliferation inhibition assay (MTT); format: cell-based; details: Homo sapiens, A549, 72 h, read-out: Proliferation inhibitory activity IC50
Experimental: (§1) The cells were seeded in 96-well plates with 200 μL of cell suspension per well and incubated overnight in a cell culture medium with a cell concentration of 1 2×10^4 cells/mL. The next day, the supernatant was discarded (the suspension cell was centrifuged before it) and the cells were treated with gradient concentrations of the test compound, respectively. […] After 72 hours, add 20 μL of MTT reagent at a concentration of 5 mg/mL per well. After incubation for 2-4 h, the supernatant was discarded and 150 μL of DMSO was added to each well. […] Relative cell proliferation inhibition rate=([MUT]-[MUT])×100%/[MUT]. The experiment was repeated at least 3 times. Experimental data were expressed as mean, data statistics using t test, P<0.05 for the difference was statistically significant.

BT474 = assay: Cell proliferation inhibition assay (MTT); format: cell-based; details: Homo sapiens, BT-474, 72 h, read-out: Proliferation inhibitory activity IC50
Experimental: as §1

HT29 = assay: Cell proliferation inhibition assay (MTT); format: cell-based; details: Homo sapiens, HT-29, 72 h, read-out: Proliferation inhibitory activity IC50
Experimental: as §1

[1] = test system: breast cancer cell line MDA-MB-231; format: in vivo; details: mouse, in vivo
Experimental: When the tumors grew to volumes of 200 mm^3, all the mice were randomized into groups (6 mice for each group) and dosed with indicated compounds.
Observation indexes: mouse body weight and the tumor size were measured once every three days, the tumor volume is calculated (length×width^2×0.5).

c-Src(1-530) = c-Src(1-530) (Homo sapiens (Human), UniProt P12931); assay: Kinase inhibition assay (KinaseProfiler, 33P-ATP); details: c-Src(1-530); ATP at Km
EphA2 = EphA2 (Homo sapiens (Human), UniProt P29317); assay: Kinase inhibition assay (KinaseProfiler, 33P-ATP); details: EphA2; ATP at Km
Bmx = Bmx (Homo sapiens (Human), UniProt P51813); assay: Kinase inhibition assay (KinaseProfiler, 33P-ATP)
Bmx, sequence (P51813 whole entry): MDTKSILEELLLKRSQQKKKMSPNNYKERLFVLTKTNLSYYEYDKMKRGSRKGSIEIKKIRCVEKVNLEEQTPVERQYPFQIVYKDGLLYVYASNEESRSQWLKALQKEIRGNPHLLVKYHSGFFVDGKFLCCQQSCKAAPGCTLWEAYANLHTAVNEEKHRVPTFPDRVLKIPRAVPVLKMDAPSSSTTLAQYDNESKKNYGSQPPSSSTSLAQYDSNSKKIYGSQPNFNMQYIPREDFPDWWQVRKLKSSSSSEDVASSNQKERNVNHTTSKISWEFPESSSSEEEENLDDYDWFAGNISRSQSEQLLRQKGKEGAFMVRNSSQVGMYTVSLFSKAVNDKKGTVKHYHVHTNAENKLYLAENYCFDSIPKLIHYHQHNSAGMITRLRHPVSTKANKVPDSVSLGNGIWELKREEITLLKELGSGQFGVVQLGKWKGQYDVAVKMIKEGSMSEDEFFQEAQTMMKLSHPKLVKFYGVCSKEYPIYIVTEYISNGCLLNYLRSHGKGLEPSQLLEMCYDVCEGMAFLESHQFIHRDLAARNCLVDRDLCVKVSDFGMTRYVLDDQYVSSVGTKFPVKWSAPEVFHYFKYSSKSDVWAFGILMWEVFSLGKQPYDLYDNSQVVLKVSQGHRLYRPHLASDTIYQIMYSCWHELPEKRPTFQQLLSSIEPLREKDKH

EGFR, sequence (P00533 25-1210): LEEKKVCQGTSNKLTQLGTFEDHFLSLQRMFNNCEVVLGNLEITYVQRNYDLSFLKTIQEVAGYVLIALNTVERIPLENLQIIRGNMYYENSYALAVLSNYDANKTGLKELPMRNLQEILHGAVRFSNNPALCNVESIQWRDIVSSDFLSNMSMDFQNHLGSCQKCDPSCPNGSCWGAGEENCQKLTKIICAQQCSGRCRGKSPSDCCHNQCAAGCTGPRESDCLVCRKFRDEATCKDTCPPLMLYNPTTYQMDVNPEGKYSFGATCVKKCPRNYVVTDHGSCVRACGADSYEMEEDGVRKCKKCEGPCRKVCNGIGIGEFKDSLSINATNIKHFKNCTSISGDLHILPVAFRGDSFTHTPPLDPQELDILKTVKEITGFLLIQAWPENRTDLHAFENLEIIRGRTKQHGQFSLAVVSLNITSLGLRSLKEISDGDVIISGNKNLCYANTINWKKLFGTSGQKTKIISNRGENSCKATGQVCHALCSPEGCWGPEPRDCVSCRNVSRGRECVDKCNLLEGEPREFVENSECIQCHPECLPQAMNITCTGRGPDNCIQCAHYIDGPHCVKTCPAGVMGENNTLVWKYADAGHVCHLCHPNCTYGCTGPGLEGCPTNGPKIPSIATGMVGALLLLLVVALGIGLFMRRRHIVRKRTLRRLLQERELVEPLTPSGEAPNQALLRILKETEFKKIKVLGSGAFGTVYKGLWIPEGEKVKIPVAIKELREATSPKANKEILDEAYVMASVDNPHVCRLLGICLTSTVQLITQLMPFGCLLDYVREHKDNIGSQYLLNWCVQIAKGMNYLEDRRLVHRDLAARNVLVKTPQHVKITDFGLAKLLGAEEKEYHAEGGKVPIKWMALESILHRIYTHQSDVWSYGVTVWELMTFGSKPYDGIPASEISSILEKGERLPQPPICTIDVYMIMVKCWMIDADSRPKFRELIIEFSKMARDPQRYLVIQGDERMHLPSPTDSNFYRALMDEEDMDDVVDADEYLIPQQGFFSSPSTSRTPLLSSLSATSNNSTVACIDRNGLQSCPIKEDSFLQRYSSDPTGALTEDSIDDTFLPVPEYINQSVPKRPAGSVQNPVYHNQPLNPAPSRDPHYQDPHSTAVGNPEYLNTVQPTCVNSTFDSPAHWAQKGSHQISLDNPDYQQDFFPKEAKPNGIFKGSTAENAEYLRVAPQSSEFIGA
PDGFRα, sequence (P16234 24-1089): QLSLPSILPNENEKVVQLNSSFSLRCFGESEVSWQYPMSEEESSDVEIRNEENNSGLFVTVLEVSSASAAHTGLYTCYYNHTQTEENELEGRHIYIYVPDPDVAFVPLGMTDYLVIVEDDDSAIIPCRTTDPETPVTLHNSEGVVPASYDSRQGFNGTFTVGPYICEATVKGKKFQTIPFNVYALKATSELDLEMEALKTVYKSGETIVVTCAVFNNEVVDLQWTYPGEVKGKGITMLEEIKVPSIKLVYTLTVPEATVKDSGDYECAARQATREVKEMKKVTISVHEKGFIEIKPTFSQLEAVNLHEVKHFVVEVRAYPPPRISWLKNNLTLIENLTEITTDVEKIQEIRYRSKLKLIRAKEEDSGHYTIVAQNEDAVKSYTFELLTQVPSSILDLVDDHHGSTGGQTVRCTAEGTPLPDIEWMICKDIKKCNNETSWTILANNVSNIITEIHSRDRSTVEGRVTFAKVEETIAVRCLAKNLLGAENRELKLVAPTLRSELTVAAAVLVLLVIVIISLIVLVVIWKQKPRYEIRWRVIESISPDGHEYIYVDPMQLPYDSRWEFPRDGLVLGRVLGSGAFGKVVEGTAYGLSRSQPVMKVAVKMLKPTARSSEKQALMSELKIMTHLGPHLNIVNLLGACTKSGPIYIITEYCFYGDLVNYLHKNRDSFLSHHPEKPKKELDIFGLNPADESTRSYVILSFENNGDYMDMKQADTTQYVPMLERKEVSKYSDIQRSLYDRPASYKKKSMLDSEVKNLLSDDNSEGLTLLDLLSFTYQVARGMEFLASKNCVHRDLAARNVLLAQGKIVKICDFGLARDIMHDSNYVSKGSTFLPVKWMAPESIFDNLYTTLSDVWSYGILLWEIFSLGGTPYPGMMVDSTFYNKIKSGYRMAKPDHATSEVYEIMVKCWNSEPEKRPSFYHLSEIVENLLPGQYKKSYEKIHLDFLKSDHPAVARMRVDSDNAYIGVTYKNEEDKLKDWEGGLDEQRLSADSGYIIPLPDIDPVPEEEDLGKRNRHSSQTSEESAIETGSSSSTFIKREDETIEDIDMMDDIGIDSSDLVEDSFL
Btk, sequence (Q06187 whole entry): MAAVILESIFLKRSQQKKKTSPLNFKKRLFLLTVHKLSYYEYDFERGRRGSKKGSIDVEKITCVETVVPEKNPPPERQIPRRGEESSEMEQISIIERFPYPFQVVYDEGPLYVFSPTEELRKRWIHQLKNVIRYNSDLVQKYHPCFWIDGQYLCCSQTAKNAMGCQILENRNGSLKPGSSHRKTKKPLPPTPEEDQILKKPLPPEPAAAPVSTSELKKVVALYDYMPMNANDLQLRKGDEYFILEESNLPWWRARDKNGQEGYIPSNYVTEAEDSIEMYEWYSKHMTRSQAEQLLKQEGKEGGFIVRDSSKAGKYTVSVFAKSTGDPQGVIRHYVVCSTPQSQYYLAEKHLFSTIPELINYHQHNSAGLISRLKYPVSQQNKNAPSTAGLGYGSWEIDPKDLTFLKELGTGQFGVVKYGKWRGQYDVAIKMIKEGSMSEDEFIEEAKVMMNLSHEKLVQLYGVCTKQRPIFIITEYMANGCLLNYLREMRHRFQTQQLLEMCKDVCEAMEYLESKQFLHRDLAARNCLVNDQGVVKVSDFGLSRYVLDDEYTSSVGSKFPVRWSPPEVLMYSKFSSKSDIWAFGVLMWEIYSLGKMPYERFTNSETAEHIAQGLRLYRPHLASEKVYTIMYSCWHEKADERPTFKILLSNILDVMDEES
Axl, sequence (P30530 26-894): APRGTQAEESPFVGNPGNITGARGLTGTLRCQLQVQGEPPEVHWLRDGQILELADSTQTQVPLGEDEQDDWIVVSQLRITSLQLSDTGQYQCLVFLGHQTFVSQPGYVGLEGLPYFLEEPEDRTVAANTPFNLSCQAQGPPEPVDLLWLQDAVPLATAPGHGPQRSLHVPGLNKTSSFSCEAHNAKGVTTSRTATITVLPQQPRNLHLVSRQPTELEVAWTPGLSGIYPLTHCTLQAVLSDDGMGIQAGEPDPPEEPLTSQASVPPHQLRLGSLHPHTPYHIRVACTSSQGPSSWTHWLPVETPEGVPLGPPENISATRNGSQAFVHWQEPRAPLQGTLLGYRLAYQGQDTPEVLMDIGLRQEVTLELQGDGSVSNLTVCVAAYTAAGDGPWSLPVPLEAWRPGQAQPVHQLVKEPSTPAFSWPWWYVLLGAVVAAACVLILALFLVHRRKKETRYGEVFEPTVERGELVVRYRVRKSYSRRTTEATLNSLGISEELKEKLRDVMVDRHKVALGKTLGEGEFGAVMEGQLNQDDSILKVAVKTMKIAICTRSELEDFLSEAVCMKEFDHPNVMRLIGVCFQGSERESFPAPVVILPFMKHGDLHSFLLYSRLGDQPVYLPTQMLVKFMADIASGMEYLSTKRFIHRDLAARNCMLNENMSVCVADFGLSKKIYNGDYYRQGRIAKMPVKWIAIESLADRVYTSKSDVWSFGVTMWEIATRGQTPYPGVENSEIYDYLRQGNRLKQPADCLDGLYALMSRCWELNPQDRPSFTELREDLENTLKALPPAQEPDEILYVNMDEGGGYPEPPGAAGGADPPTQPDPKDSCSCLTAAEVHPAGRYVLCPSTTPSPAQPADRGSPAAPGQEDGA
Yes, sequence (P07947 whole entry): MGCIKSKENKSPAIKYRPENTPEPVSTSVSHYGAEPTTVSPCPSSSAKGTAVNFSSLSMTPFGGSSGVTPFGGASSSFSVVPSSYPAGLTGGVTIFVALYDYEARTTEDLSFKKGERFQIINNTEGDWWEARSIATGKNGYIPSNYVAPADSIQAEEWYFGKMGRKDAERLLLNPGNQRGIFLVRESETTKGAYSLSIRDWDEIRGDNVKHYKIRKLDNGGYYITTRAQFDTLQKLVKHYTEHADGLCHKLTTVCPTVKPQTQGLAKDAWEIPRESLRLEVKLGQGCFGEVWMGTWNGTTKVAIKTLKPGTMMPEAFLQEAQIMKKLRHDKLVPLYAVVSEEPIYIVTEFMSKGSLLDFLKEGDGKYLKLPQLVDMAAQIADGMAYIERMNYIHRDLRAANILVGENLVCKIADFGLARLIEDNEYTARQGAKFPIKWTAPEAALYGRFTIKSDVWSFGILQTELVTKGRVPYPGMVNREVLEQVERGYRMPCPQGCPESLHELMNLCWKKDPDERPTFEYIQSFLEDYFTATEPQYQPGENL

CCn1nc(C#Cc2cc(C(=O)Nc3ccc(CN4CCN(C)CC4)c(C(F)(F)F)c3)ccc2C)c2c(N)ncnc21 [Compound 3]
remaining activity at 10 µM (c-RAF): 5%
remaining activity at 10 µM (Yes; Yes(h), compound at 10 μM, read-out: The percentage of the remaining active protein): 0%
IC50 (Yes; Yes, ATP at Km): < 1 nM
IC50 (EphB4): 23 nM
IC50 (DDR1): 9 nM
IC50 (DDR2): 128 nM
remaining activity at 10 µM (TrkA): -2%
remaining activity at 10 µM (Btk; BTK(h), compound at 10 μM, read-out: The percentage of the remaining active protein): -3%
IC50 (Btk; Btk, ATP at Km): 67 nM
remaining activity at 10 µM (IKKα; IKKα(h), compound at 10 μM, read-out: The percentage of the remaining active protein): 2%
IC50 (IKKα; IKKα, ATP at Km): 353 nM
remaining activity at 10 µM (Axl; Axl(h), compound at 10 μM, read-out: The percentage of the remaining active protein): -4%
IC50 (Axl; Axl, ATP at Km): 578 nM
remaining activity at 10 µM (PDGFRα; PDGFRα(h), compound at 10 μM, read-out: The percentage of the remaining active protein): 5%
IC50 (PDGFRα; PDGFRα, ATP at Km): 890 nM
remaining activity at 10 µM (EGFR; EGFR(h), compound at 10 μM, read-out: The percentage of the remaining active protein): 30%
IC50 (EGFR; EGFR, ATP at Km): 3520 nM
remaining activity at 10 µM (Lyn): 0%
remaining activity at 10 µM (Tie2): 3%
remaining activity at 10 µM (CHK1(h)): 91%
remaining activity at 10 µM (FAK(h)): 43%
remaining activity at 10 µM (GSK3β(h)): 130%
remaining activity at 10 µM (Met(h)): 24%
remaining activity at 10 µM (PAK1(h)): 57%
remaining activity at 10 µM (Pim-1(h)): 46%
remaining activity at 10 µM (PKBα(h)): 73%
remaining activity at 10 µM (PKBβ(h)): 52%
remaining activity at 10 µM (TBK1(h)): 75%
remaining activity at 10 µM (Tec(h) activated): 4%
remaining activity at 10 µM (PI3 Kinase a(h)): 93%
IC50 (A549): 199 nM
IC50 (BT474): > 10000 nM
IC50 (HT29): 166 nM
inhibitory effect compared to positive control [1]: better than the positive control (paclitaxel)
tumor growth inhibition [1]: significantly inhibited
IC50 (c-Src(1-530)): < 1 nM
IC50 (EphA2): 16 nM
IC50 (Bmx): 6 nM
remaining activity at 10 µM (Bmx; read-out: The percentage of the remaining active protein): 0%

From patent US10266537B2, “3-acetylenyl-pyrazole-pyrimidine derivative, and preparation method therefor and uses thereof” (Si Chuan University, priority 2015, dated 2019)
